Where “and” joins values, the source holds several entries; their conditions need not be identical. Identical values can stand only once.
Biological target: T1, Thyroid hormone receptor beta (Homo sapiens, UniProt P10828)
T1 sequence (P10828 whole entry): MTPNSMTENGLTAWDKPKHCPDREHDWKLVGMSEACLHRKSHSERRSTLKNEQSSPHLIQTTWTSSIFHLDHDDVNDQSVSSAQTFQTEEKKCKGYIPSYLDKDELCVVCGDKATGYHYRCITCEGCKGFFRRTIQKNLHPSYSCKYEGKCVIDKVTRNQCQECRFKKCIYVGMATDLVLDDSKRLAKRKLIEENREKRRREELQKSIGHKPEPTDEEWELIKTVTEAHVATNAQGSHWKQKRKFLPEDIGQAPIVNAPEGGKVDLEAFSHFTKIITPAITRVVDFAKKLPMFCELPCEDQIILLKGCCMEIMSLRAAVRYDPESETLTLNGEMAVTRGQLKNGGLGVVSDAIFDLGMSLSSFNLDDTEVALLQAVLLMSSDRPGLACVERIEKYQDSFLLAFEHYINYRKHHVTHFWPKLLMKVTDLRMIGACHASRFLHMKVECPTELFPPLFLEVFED

| Compound | IC50 |
| --- | --- |
| Cc1cc(-n2ncc(=O)[nH]c2=O)cc(C)c1Oc1ccc(O)c(S(=O)(=O)N2CCCCC2)c1 | 1.29 nM |
| COc1cccc(CCNC(=O)c2cc(Oc3c(Br)cc(CC(=O)O)cc3Br)ccc2O)c1 | 8.51 nM |
| COc1ccccc1CCNC(=O)c1cc(Oc2c(Br)cc(CC(=O)O)cc2Br)ccc1O | 0.468 nM |
| O=C(NC1CCC1)c1cc(Oc2c(Cl)cc(-n3ncc(=O)[nH]c3=O)cc2Cl)ccc1O | 1.78 nM |
| Cc1cc(-n2ncc(=O)[nH]c2=O)cc(Cl)c1Oc1ccc(O)c(S(=O)(=O)N2CCOCC2)c1 | 75.9 nM |
| CC1(C)C2CCC(NC(=O)c3cc(Oc4c(Cl)cc(-n5ncc(=O)[nH]c5=O)cc4Cl)ccc3O)C1C2 (stereo in doubt; 43) | 0.112 nM |
| O=c1cnn(-c2cc(Cl)c(Oc3ccc(O)c(S(=O)(=O)Nc4ccccc4)c3)c(Cl)c2)c(=O)[nH]1 | 0.282 nM |
| Cc1cc(-n2ncc(=O)[nH]c2=O)cc(Cl)c1Oc1ccc(O)c(S(=O)(=O)N2CCCCC2)c1 | 0.363 nM |
| O=c1cnn(-c2cc(Cl)c(Oc3ccc(O)c(S(=O)(=O)N4C5CCC4CC4(CCCO4)C5)c3)c(Cl)c2)c(=O)[nH]1 (configuration not stated) | 0.776 nM |
| O=C(O)Cc1cc(Br)c(Oc2ccc(O)c(C(=O)NCC(c3ccccc3)c3ccccc3)c2)c(Br)c1 | 37.2 nM |
| O=C(c1cc(Oc2c(Cl)cc(-n3ncc(=O)[nH]c3=O)cc2Cl)ccc1O)N1CCOCC1 | 2 nM |
| O=c1cnn(-c2cc(Cl)c(Oc3ccc(O)c(S(=O)(=O)N4CCCCC4)c3)c(Cl)c2)c(=O)[nH]1 | 0.0562 nM |
| O=c1cnn(-c2cc(Cl)c(Oc3ccc(O)c(S(=O)(=O)N4CCc5ccccc54)c3)c(Cl)c2)c(=O)[nH]1 | 0.646 nM |
| COc1ccc(CCNC(=O)c2cc(Oc3c(Br)cc(CC(=O)O)cc3Br)ccc2O)cc1 | 4.79 nM |
| CC1(C)C2CCC1(C)[C@H](NC(=O)c1cc(Oc3c(Cl)cc(-n4ncc(=O)[nH]c4=O)cc3Cl)ccc1O)C2 (some centres not stated) | 1.02 nM |
| O=C(O)Cc1cc(Br)c(Oc2ccc(O)c(C(=O)NC(=O)c3ccccc3)c2)c(Br)c1 | 4.17 nM |
| O=C(c1cc(Oc2c(Cl)cc(-n3ncc(=O)[nH]c3=O)cc2Cl)ccc1O)N1CCCCC1 | 1.74 nM and 5.25 nM |
| O=c1cnn(-c2cc(Cl)c(Oc3ccc(O)c(S(=O)(=O)NC4CCC4)c3)c(Cl)c2)c(=O)[nH]1 | 1.12 nM |
| O=c1cnn(-c2cc(Cl)c(Oc3ccc(O)c(S(=O)(=O)N4C5CCC4CC4(C5)OCCO4)c3)c(Cl)c2)c(=O)[nH]1 | 0.871 nM |
| CC1(C)C2CCC(NC(=O)c3cc(Oc4c(Cl)cc(-n5ncc(=O)[nH]c5=O)cc4Cl)ccc3O)C1C2 (stereo in doubt; 42) | 0.166 nM |
| O=C(NC1CCCCC1)c1cc(Oc2c(Cl)cc(-n3ncc(=O)[nH]c3=O)cc2Cl)ccc1O | 0.195 nM |
| O=c1cnn(-c2cc(Cl)c(Oc3ccc(O)c(S(=O)(=O)NC4CCCCC4)c3)c(Cl)c2)c(=O)[nH]1 | 1.29 nM |

— ChEMBL document CHEMBL1149596, “QSAR study of selective ligands for the thyroid hormone receptor beta” (Bioorg Med Chem, 2007)
